Legend:
Human M4 = molecular target: T1, Human M4 (Homo sapiens, UniProt P08173); assay: mAChR M4 cell-based functional calcium flux assay (human M4/Gqi5/CHO cells); conditions: for Emin (human M4): % ACh maximum at 30 μM; for IC50: decrease of the response to an EC80 concentration of acetylcholine
T1 construct: expressed in transfected cells; host or cells: CHO-K1 (ATCC), stably expressing M4 and Gqi5
T1 sequence (P08173 1-479): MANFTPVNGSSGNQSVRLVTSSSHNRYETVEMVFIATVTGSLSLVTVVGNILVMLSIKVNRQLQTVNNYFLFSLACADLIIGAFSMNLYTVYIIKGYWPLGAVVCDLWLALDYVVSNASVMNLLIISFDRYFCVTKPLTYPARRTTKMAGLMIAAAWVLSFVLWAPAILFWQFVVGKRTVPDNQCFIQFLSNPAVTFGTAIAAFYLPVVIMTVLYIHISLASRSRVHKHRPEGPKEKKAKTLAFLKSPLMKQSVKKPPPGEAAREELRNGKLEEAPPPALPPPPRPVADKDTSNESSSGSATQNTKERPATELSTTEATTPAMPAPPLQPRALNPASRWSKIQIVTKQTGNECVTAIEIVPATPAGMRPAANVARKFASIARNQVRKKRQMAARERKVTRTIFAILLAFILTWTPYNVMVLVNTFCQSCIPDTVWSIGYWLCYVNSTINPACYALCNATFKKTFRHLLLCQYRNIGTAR
Method in brief: (§1)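 CHO-K1 cells stably co-expressing M4 of the given species with chimeric Gqi5 were loaded with Fluo-4 AM and read for calcium flux. Compounds (10-point, 1:3 dilutions) were added first, followed by an acetylcholine EC20 at 143 s and an EC80 at 268 s. IC50 reflects the concentration-dependent fall in the EC80 response, fitted with a four-parameter logistic.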

Rat M4 = molecular target: T2, Rat M4 (Rattus norvegicus, UniProt P08485); assay: mAChR M4 cell-based functional calcium flux assay (rat M4/Gqi5/CHO cells); conditions: for Emin (rat M4): % ACh maximum at 30 μM
T2 construct: expressed in transfected cells; host or cells: CHO-K1 (ATCC), stably expressing M4 and Gqi5
T2 sequence (P08485 1-478): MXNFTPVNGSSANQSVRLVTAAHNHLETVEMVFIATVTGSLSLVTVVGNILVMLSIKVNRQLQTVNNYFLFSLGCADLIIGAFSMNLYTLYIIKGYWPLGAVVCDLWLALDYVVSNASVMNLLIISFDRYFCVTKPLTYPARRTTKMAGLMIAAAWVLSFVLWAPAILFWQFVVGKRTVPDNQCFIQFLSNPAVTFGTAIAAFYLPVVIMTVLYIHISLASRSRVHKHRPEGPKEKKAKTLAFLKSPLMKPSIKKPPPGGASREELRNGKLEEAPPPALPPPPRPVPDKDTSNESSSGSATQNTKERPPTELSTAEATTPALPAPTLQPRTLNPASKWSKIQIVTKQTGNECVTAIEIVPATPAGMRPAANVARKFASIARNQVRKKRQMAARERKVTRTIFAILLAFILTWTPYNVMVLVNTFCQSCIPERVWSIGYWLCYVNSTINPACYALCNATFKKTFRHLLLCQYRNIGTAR
Method in brief: as §1

[1] = decrease of the response to an EC80 concentration of acetylcholine

| SMILES | Emin (human M4) (Human M4) [%] | IC50 (Human M4) [nM] | Emin (rat M4) (Rat M4) [%] | IC50 (Rat M4; [1]) [µM] | IC50 (Rat M4; cells printed in μM, decrease of the EC80 acetylcholine response) [µM] |
| --- | --- | --- | --- | --- | --- |
| Fc1ccc(Cl)c(-c2ccc(NCC3CC34CCN(CC(c3ccccc3)c3ccccc3)CC4)nn2)c1 (centres unmarked) [Compound 17, 6-(2-chloro-5-fluoro-phenyl)-N-[[6-(2,2-diphenylethyl)-6-azaspiro[2.5]octan-2-yl]methyl]pyridazin-3-amine] | 3.82 | 987 | 12.1 | 2.98 | – |
| c1cc(N2CCOCC2)nnc1NCC1CC12CCN(CC1CCCCC1)CC2 (centres unmarked) [Compound 83, N-[[6-(cyclohexylmethyl)-6-azaspiro[2.5]octan-2-yl]methyl]-6-morpholino-pyridazin-3-amine] | 6 | 33.5 | 7 | 0.362 | – |
| CC(C)(C)CCN1CCC2(CC1)CC2CNc1ccc(-c2ccc3ncccc3c2)nn1 (centres unmarked) [Compound 45, N-[[6-(3,3-dimethylbutyl)-6-azaspiro[2.5]octan-2-yl]methyl]-6-(6-quinolyl)pyridazin-3-amine] | 2.89 | 9.08 | 3.33 | 0.0539 | – |
| CCCC(C)CN1CCC2(CC1)CC2CNc1ccc(-c2cn(C)nc2C)nn1 (centres unmarked) [Compound 52, 6-(1,3-dimethylpyrazol-4-yl)-N-[[6-(2-methylpentyl)-6-azaspiro[2.5]octan-2-yl]methyl]pyridazin-3-amine] | 3.9 | 18.6 | 5.80 | 0.578 | – |
| CC(=O)Nc1ccc(-c2nnc(NCC3CC34CCN(CC3CCCCC3)CC4)c(C)c2C)cc1 (centres unmarked) [Compound 117, N-[4-[6-[[6-(cyclohexylmethyl)-6-azaspiro[2.5]octan-2-yl]methylamino]-4,5-dimethyl-pyridazin-3-yl]phenyl]acetamide] | 5 | 19.7 | 4 | 0.0137 | – |
| CC(=O)Nc1ccc(-c2ccc(NC[C@H]3CC34CCN(CC3CCOCC3)CC4)nn2)cc1 [Compound 126, N-[4-[6-[[(2S)-6-(tetrahydropyran-4-ylmethyl)-6-azaspiro[2.5]octan-2-yl]methylamino]pyridazin-3-yl]phenyl]acetamide] | 14 | 1810 | 28 | – | ≥ 10 |
| CCC(C)CN1CCC2(CC1)CC2CNc1ccc(-c2cn(C)nc2C)nn1 (centres unmarked) [Compound 51, 6-(1,3-dimethylpyrazol-4-yl)-N-[[6-(2-methylbutyl)-6-azaspiro[2.5]octan-2-yl]methyl]pyridazin-3-amine] | 4.31 | 49.5 | 7.13 | 0.808 | – |
| CC(=O)Nc1ccc(-c2nnc(NCC3CC34CCN(CCC(C)(C)C)CC4)c(C)c2C)cc1 (centres unmarked) [Compound 116, N-[4-[6-[[6-(3,3-dimethylbutyl)-6-azaspiro[2.5]octan-2-yl]methylamino]-4,5-dimethyl-pyridazin-3-yl]phenyl]acetamide] | 5 | 11.9 | 4 | 0.015 | – |
| Cc1nn(C)cc1-c1ccc(NCC2CC23CCN(CC2CCCCC2)CC3)nn1 (centres unmarked) [Compound 56, N-[[6-(cyclohexylmethyl)-6-azaspiro[2.5]octan-2-yl]methyl]-6-(1,3-dimethylpyrazol-4-yl)pyridazin-3-amine] | 3.42 | 5.06 | 4.14 | 0.0638 | – |
| Cc1nn(C)cc1-c1ccc(NCC2CC23CCN(CCC(C)(C)C)CC3)nn1 (centres unmarked) [Compound 50, N-[[6-(3,3-dimethylbutyl)-6-azaspiro[2.5]octan-2-yl]methyl]-6-(1,3-dimethylpyrazol-4-yl)pyridazin-3-amine] | 2.71 | 2.4 | 3.70 | 0.0158 | – |
| Fc1ccc(Cl)c(-c2ccc(NCC3CC34CCN(CC35CC6CC(CC(C6)C3)C5)CC4)nn2)c1 (centres unmarked) [Compound 16, N-[[6-(1-adamantylmethyl)-6-azaspiro[2.5]octan-2-yl]methyl]-6-(2-chloro-5-fluoro-phenyl)pyridazin-3-amine] | 2.44 | 94.1 | 3.13 | 0.496 | – |
